target: Mothers against decapentaplegic homolog 2/homolog 3 (Homo sapiens, UniProt P84022+Q15796); assay: Inhibition of TGF-beta induced Smad2/3 signaling in human HepG2 cells harboring pRL-EF1alpha, (CAGA)9x-MLP-Luc plasmid assessed as luciferase activity incubated for 24 hrs; type: cell-based

Row | IC50 | Compound
1 | 0.24 µM | C/C1=C\C[C@@H](O)[C@H](C)[C@H](C)OC(=O)Cc2c(Cl)c(O)cc(O)c2C1=O
2 | 0.1 µM | C/C1=C/C[C@@H](O)[C@H](C)[C@@H](C)OC(=O)Cc2c(Cl)c(O)cc(O)c2C1=O
3 | 0.068 µM | C/C1=C\C[C@H](O)[C@H](C)[C@@H](C)OC(=O)Cc2c(Cl)c(O)cc(O)c2C1=O
4 | 0.14 µM | C/C1=C\C[C@H](O)[C@H](C)[C@H](C)OC(=O)Cc2c(Cl)c(O)cc(O)c2C1=O
5 | 0.068 µM | C/C1=C/C[C@H](O)[C@H](C)[C@@H](C)OC(=O)Cc2c(Cl)c(O)cc(O)c2C1=O

target: T1, Signal transducer and activator of transcription 6 (Homo sapiens, UniProt P42226); assay: Inhibition of IL-4 induced STAT6 signaling in human HepG2 cells harboring pRL-EF1alpha, pGL3-TK-7xN4 and TOPO-Stat6 plasmid assessed as luciferase activity incubated for 24 hrs; type: cell-based
T1 sequence (P42226 whole entry): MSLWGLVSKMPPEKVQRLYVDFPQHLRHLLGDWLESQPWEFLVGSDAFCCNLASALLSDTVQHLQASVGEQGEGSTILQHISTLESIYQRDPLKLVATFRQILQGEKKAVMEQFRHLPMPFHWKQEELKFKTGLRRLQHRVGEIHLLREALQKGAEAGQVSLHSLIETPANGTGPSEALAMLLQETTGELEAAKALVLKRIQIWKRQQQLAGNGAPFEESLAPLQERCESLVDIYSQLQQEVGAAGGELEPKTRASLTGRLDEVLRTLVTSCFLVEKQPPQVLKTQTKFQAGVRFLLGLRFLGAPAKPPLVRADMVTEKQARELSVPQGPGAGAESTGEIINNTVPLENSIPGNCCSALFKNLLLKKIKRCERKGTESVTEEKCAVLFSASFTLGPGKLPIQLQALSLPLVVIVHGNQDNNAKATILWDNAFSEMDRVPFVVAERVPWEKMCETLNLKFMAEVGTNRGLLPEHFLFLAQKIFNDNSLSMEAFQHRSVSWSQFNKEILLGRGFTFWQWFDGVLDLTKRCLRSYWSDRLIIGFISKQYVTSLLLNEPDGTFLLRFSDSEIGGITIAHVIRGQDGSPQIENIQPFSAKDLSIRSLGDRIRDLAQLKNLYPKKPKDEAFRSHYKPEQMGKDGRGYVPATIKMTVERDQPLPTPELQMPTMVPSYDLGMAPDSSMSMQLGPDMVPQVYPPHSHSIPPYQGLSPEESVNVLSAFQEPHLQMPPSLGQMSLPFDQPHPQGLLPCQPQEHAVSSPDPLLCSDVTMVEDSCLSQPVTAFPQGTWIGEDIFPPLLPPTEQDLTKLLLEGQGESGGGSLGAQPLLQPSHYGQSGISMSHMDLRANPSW

Row | IC50 | Compound
6 | 0.068 µM | C/C1=C\CCC(C)(O)C(C)OC(=O)Cc2c(Cl)c(O)cc(O)c2C1=O (centres undefined)
7 | 0.056 µM | C/C1=C\C[C@@H](O)[C@H](C)[C@@H](C)OC(=O)Cc2c(Cl)c(O)cc(O)c2C1=O
8 | 0.079 µM | C/C1=C\CCC(C)(C)C(C)OC(=O)Cc2c(Cl)c(O)cc(O)c2C1=O (centres undefined)
9 | 0.02 µM | C/C1=C\CC[C@H](C)[C@@H](C)OC(=O)Cc2c(Cl)c(O)cc(O)c2C1=O

Reference: ChEMBL document CHEMBL5335851, “Total Synthesis, Structure Reassignment, and Biological Evaluation of the Anti-Inflammatory Macrolactone 13-Hydroxy-14-deoxyoxacyclododecindione” (J Nat Prod, 2024)
